This note sets out measurements from patent US10428026B2, “Pyridinone dicarboxamide for use as bromodomain inhibitors” (GlaxoSmithKline Intellectual Property (No.2) Limited, priority 2015, dated 2019).

Where two headings read alike, the source gives them in different places. Bounds are passed on as bounds.

One experiment concerns the target T1, BRD4 BD1 (Homo sapiens, UniProt O60885, Y390A).
T1 construct: BRD4 (1-477) (Y97A) and (Y390A); made in house; host or cells: E. coli (pET15b vector)
The experiment can be described thus: BRD4 BD1 TR-FRET competition assay. As to conditions: mean of n determinations; read-out: mean pIC50 in the BRD4 BD1 TR-FRET assay (converted). Type of experiment: binding. For orientation: TR-FRET usually uses a lanthanide donor and a delayed reading to cut background.

For the next experiment, the target named is T2, BRD4 BD2 (Homo sapiens, UniProt O60885, Y97A).
T2 construct: BRD4 (1-477) (Y97A) and (Y390A); made in house; host or cells: E. coli (pET15b vector)
The experiment can be described thus: BRD4 BD2 TR-FRET competition assay. Type of experiment: binding. As to conditions: for fold selective for BRD4 BD2 over BRD4 BD1: derived from the log unit selectivity; for selectivity for BRD4 BD2 over BRD4 BD1 (BRD4 BD2 pIC50 - BRD4 BD1 pIC50): in at least one of the TR-FRET assays.

For experiment [1], the system named is BET family (BRD2, BRD3, BRD4 and BRDT) mutant tandem bromodomain proteins. The experiment is described as follows: Fluorescence Polarisation binding of Reference Compound X to single and double mutant tandem BET proteins. Further details: species or system Human. The procedure:
The competition of the compounds of formula (I) with Reference Compound X for binding to the BET family (BRD2, BRD3, BRD4 and BRDT) was assessed using protein truncates spanning both bromodomain 1 (BD1) and bromodomain 2 (BD2). In order to monitor differential binding to either BD1 or BD2, single residue mutations of key tyrosines to alanine were made in the acetyl lysine binding pockets. To validate this approach, a double residue mutant tandem domain protein was produced for each of the BET family members. Utilising a Fluorescence Polarisation approach, binding affinities for each of the single and double mutants for Reference Compound X were determined. […] The affinities of the single mutated bromdomain tandem proteins for Reference Compound X were equi-potent with the corresponding non-mutated BET protein. […] In the TR-FRET competition assay, Reference Compound X is used at a concentration that is equivalent to the Kd for the non-mutated bromodomain, which ensures that no binding at the mutated bromodomain is detected. […]
(Fluorescence polarisation rises when a labelled molecule tumbles more slowly, as on binding a larger partner.)

[2] abbreviates: mean of n determinations, read-out: mean pIC50 in the BRD4 BD2 TR-FRET assay (converted).

Regarding `CNC(=O)c1cc(C(=O)N[C@H]2C[C@@H]2C)cn(Cc2ccccc2)c1=O` (single isomer, unassigned) [Example 102], the IC50 on BRD4 BD1 was 7.94 µM. At BRD4 BD2, the “fold selective for BRD4 BD2 over BRD4 BD1” value was “at least 100 fold” and the “selectivity for BRD4 BD2 over BRD4 BD1 (BRD4 BD2 pIC50 - BRD4 BD1 pIC50)” value is listed as 2.5 log unit. The IC50 on BRD4 BD2 (setting [2]) is 0.0251 µM.

Turning to `CNC(=O)c1cc(C(=O)N[C@H]2C[C@@H]2C)cn(Cc2cccc(OCCO)c2)c1=O` [Example 153, 1-(3-(2-Hydroxyethoxy)benzyl)-N3-methyl-N5-((1S,2S)-2-methylcyclopropyl)-2-oxo-1,2-dihydropyridine-3,5-dicarboxamide], at BRD4 BD1, the IC50 was 31.6 µM. Also, at BRD4 BD2, the “fold selective for BRD4 BD2 over BRD4 BD1” value is on record as “at least 100 fold” and the “selectivity for BRD4 BD2 over BRD4 BD1 (BRD4 BD2 pIC50 - BRD4 BD1 pIC50)” value was found to be 2.7 log unit. Also, the IC50 on BRD4 BD2 (setting [2]) is 0.0631 µM.

For `CNC(=O)c1cc(C(=O)N[C@H]2C[C@@H]2C)cn(Cc2ccc(C(=O)O)cc2)c1=O` [Example 339, 4-((3-(Methylcarbamoyl)-5-(((1S,2S)-2-methylcyclopropyl)carbamoyl)-2-oxopyridin-1(2H)-yl)methyl)benzoic acid], the IC50 at BRD4 BD2 (BRD4 BD2 TR-FRET, read-out: pIC50 in the BRD4 BD2 assay (converted)) was 1 to 100 µM.

On to `COc1ccc2c(c1)C(c1ccc(Cl)cc1)=N[C@@H](CC(=O)NCCCCCNC(=O)CCCCCC1(C)/C(=C/C=C/C=C/C3=[N+](CCCCS(=O)(=O)O)c4ccc(S(=O)(=O)O)cc4C3(C)C)N(CCCCS(=O)(=O)[O-])c3ccc(S(=O)(=O)O)cc31)c1nnc(C)n1-2` (some centres unmarked) [Reference Compound X], for which the “fold reduction in Kd (affinity) of double mutant tandem proteins for Reference Compound X” value in experiment [1] (double residue mutant versus non mutated, wild type tandem BET proteins) is reported as above 1000 fold. Also, the “fold change of Kd of the interaction between the mutated bromodomain and Reference Compound X” value in experiment [1] (single mutations of Tyrosine to Alanine) is reported as above 1000 fold.
